In US6569881B1, “Substituted benzimidazole, the production thereof and the use thereof as means against parasitic protozoa” (Bayer Aktiengesellschaft, priority 1999, dated 2003):

What was measured:
Type in all cases: in vivo, chicken chicks
[1] = system: Eimeria acervulina, Eimeria maxima and Eimeria tenella; experiment: Cage experiments coccidiosis/chicks, mixed experimental infection; conditions: for dropping scores / lesion score: grade 0 to 6
Procedure: (§1) The efficacy of the compounds according to the invention can be confirmed, for example, in cage experiments using the following experimental arrangement, in which the animals are treated with the respective individual components and with the mixtures of the individual components.
(§2) An active compound-containing feed is prepared in such a way that the required amount of active compound is thoroughly mixed with a nutritionally balanced animal feed, e.g. with the chick feed indicated below.
(§3) 8 to 12 day-old male chicken chicks raised under coccidea-free conditions (e.g. LSL Brinkschulte/Senden) receive the compounds according to the invention (test substances) from 3 days before (day -3) the infection (=a.i.) until 8 (9) days after the infection (=p.i.) with the feed in the concentration indicated in ppm. Three animals are kept in each cage. Per dose, one to a number of groups of this type are employed. Infection is carried out by means of a stomach tube directly into the crop using approximately 100,000 sporulated oocysts of Eimeria acervulina and with in each case approximately 30,000 oocysts of E. maxima and 40,000 sporulated oocysts of E. tenella. These are highly virulent strains. The exact infectious dose is adjusted such that if possible one of three experimentally infected untreated chicks dies due to infection. For the assessment of the efficacy, the following criteria are taken into consideration: weight increase from the start of the experiment to the end of the experiment, death rate due to infection, macroscopic assessment of the faeces with respect to diarrhoea and excretion of blood on days 5 and 7 p.i. (grade 0 to 6), macroscopic grade of the intestinal mucous membrane, in particular of the cecums (grade 0 to 6) and the oocyst excretion and also the proportion (in %) of the oocysts sporulating within 24 hours. The number of oocysts in the faeces was determined with the aid of the McMaster counting chamber (see Engelbrecht and coworkers “Parasitologische Arbeitsmethoden in Medizin und Veterinärmedizin, [Parasitological working methods in medicine and veterinary medicine] Akademie-Verlag, Berlin (1965)). The individual findings are related to the untreated noninfected control groups and an overall grade is calculated (cf. A. Haberkorn (1986), pp. 263 to 270 in Research in Avian Coccidiosis ed L. R. McDougald, L. P. Joyner, P. L. Long Proceedings of the Georgia Coccidiosis Conference Nov, 18-20, 1985 Athens/Ga. USA).
In the column “ppm”, the concentration of the active compound employed in the feed is indicated in ppm.
In the column “mortality”, the percentage of the animals which have died is indicated under % and the number of the animals which have died/animals employed in the experiment is indicated under n.
In the column “weight % of not inf. control”, the ratio of the weight of the treated animals to the weight of the noninfected control group is indicated.
(§4) In the columns “dropping scores”, “lesion score” and “oocyst control”, individual details of the action are given.
In the column “% efficacy”, the overall rating is assessed; 0% means no action, 100% means complete action.

Eimeria maxima = experiment: Cage experiments coccidiosis/chicks, Eimeria maxima part of the mixed infection; conditions: for Efficacy against Eimeria maxima (grade): second symbol of cell; for Efficacy against Eimeria maxima (grade): key: 2 = complete action; 1 = weak action; 0 = inactive; D = death
Procedure: as §1, §2, §3, §4

Eimeria tenella = experiment: Cage experiments coccidiosis/chicks, Eimeria tenella part of the mixed infection; conditions: for Efficacy against Eimeria tenella (grade): third symbol of cell; for Efficacy against Eimeria tenella (grade): key: 2 = complete action; 1 = weak action; 0 = inactive; D = death
Procedure: as §1, §2, §3, §4

Eimeria acervulina = experiment: Cage experiments coccidiosis/chicks, Eimeria acervulina part of the mixed infection; conditions: for Efficacy against Eimeria acervulina (grade): first symbol of cell; for Efficacy against Eimeria acervulina (grade): key: 2 = complete action; 1 = weak action; 0 = inactive; D = death
Procedure: as §1, §2, §3, §4

[2] = 5 ppm in feed, listed as Ex. 15
[3] = 10 ppm in feed, listed as Ex. 15

## Cc1oc(=O)oc1Cn1c(C(F)(F)F)nc2c(Cl)cc3c(c21)OC(F)(F)C(F)(F)O3 [Example 15]
[1]; 2.5 ppm in feed
  % efficacy tot.: 43%
  mortality %: 0%
  mortality n (died/employed): 0/3
  oocyst in % of inf. control tot.: 48%
  weight % of not inf. control: 80%
  dropping scores: 1
  lesion score: 6
[1]; 5 ppm in feed
  % efficacy tot.: 75%
  mortality %: 0%
  mortality n (died/employed): 0/3
  oocyst in % of inf. control tot.: 1%
  weight % of not inf. control: 85%
  dropping scores: 6
  lesion score: 1
[1]; [2]
  lesion score: 6
  % efficacy tot.: 23%
  oocyst in % of inf. control tot.: 31%
  weight % of not inf. control: 75%
[1]; 7.5 ppm in feed
  % efficacy tot.: 60%
  mortality %: 0%
  mortality n (died/employed): 0/3
  oocyst in % of inf. control tot.: 13%
  weight % of not inf. control: >100%
  dropping scores: 6
  lesion score: 2
[1]; 10 ppm in feed
  % efficacy tot.: 91%
  mortality %: 0%
  mortality n (died/employed): 0/3
  oocyst in % of inf. control tot.: 0%
  weight % of not inf. control: 82%
  dropping scores: 0
  lesion score: 0
[1]; [3]
  lesion score: 1
  % efficacy tot.: 89%
  oocyst in % of inf. control tot.: 1%
  weight % of not inf. control: 92%
[1]; 25 ppm in feed
  mortality %: 100%
  mortality n (died/employed): 3/3
  dropping scores: 0
Eimeria maxima; 2.5 ppm in feed
  oocyst in % of inf. control max.: 0%
Eimeria maxima; 5 ppm in feed
  oocyst in % of inf. control max.: 2%
Eimeria maxima; [2]
  oocyst in % of inf. control max.: 0%
Eimeria maxima; 7.5 ppm in feed
  oocyst in % of inf. control max.: 0%
Eimeria maxima; 10 ppm in feed
  oocyst in % of inf. control max.: 0%
Eimeria maxima; Dose 5 ppm
  Efficacy against Eimeria maxima (grade): 0
Eimeria maxima; Dose 10 ppm
  Efficacy against Eimeria maxima (grade): 1
Eimeria maxima; Dose 25 ppm
  Efficacy against Eimeria maxima (grade): 2
Eimeria tenella; 2.5 ppm in feed
  oocyst in % of inf. control ten.: 48%
Eimeria tenella; 5 ppm in feed
  oocyst in % of inf. control ten.: 0%
Eimeria tenella; [2]
  oocyst in % of inf. control ten.: 23%
Eimeria tenella; 7.5 ppm in feed
  oocyst in % of inf. control ten.: 12%
Eimeria tenella; 10 ppm in feed
  oocyst in % of inf. control ten.: 0%
Eimeria tenella; [3]
  oocyst in % of inf. control ten.: 1%
Eimeria tenella; Dose 5 ppm
  Efficacy against Eimeria tenella (grade): 1
Eimeria tenella; Dose 10 ppm
  Efficacy against Eimeria tenella (grade): 2
Eimeria tenella; Dose 25 ppm
  Efficacy against Eimeria tenella (grade): 1
Eimeria acervulina; 2.5 ppm in feed
  oocyst in % of inf. control ac.: 48%
Eimeria acervulina; 5 ppm in feed
  oocyst in % of inf. control ac.: 2%
Eimeria acervulina; [2]
  oocyst in % of inf. control ac.: 49%
Eimeria acervulina; 7.5 ppm in feed
  oocyst in % of inf. control ac.: 16%
Eimeria acervulina; 10 ppm in feed
  oocyst in % of inf. control ac.: 0%
Eimeria acervulina; [3]
  oocyst in % of inf. control ac.: 2%
Eimeria acervulina; Dose 5 ppm
  Efficacy against Eimeria acervulina (grade): 1
Eimeria acervulina; Dose 10 ppm
  Efficacy against Eimeria acervulina (grade): 2
Eimeria acervulina; Dose 25 ppm
  Efficacy against Eimeria acervulina (grade): 2

## Cc1oc(=O)oc1Cn1c(C(F)(F)F)nc2cc(Cl)c(C(F)(F)F)cc21 [Example 18]
[1]; 5 ppm in feed
  % efficacy tot.: 7%
  mortality %: 0%
  mortality n (died/employed): 0/3
  oocyst in % of inf. control tot.: >100%
  weight % of not inf. control: 33%
  dropping scores: 6
  lesion score: 6
[1]; 10 ppm in feed
  % efficacy tot.: 5%
  mortality %: 0%
  mortality n (died/employed): 0/3
  oocyst in % of inf. control tot.: >100%
  weight % of not inf. control: 30%
  dropping scores: 6
  lesion score: 6
[1]; 25 ppm in feed
  % efficacy tot.: 75%
  mortality %: 0%
  mortality n (died/employed): 0/3
  oocyst in % of inf. control tot.: 1%
  weight % of not inf. control: 82%
  dropping scores: 1
  lesion score: 3
Eimeria maxima; 5 ppm in feed
  oocyst in % of inf. control max.: >100%
Eimeria maxima; 10 ppm in feed
  oocyst in % of inf. control max.: 0%
Eimeria maxima; 25 ppm in feed
  oocyst in % of inf. control max.: 20%
Eimeria maxima; Dose 5 ppm
  Efficacy against Eimeria maxima (grade): 0
Eimeria maxima; Dose 10 ppm
  Efficacy against Eimeria maxima (grade): 0
Eimeria maxima; Dose 25 ppm
  Efficacy against Eimeria maxima (grade): 1
Eimeria tenella; 5 ppm in feed
  oocyst in % of inf. control ten.: >100%
Eimeria tenella; 10 ppm in feed
  oocyst in % of inf. control ten.: >100%
Eimeria tenella; 25 ppm in feed
  oocyst in % of inf. control ten.: 1%
Eimeria tenella; Dose 5 ppm
  Efficacy against Eimeria tenella (grade): 0
Eimeria tenella; Dose 10 ppm
  Efficacy against Eimeria tenella (grade): 0
Eimeria tenella; Dose 25 ppm
  Efficacy against Eimeria tenella (grade): 2
Eimeria acervulina; 5 ppm in feed
  oocyst in % of inf. control ac.: >100%
Eimeria acervulina; 10 ppm in feed
  oocyst in % of inf. control ac.: >100%
Eimeria acervulina; 25 ppm in feed
  oocyst in % of inf. control ac.: 0%
Eimeria acervulina; Dose 5 ppm
  Efficacy against Eimeria acervulina (grade): 0
Eimeria acervulina; Dose 10 ppm
  Efficacy against Eimeria acervulina (grade): 0
Eimeria acervulina; Dose 25 ppm
  Efficacy against Eimeria acervulina (grade): 2
